Data as given in patent US20240262842A1, “SMALL MOLECULE INHIBITORS OF KRAS G12C MUTANT” (Merck Sharp & Dohme LLC, priority 2021, published 2024).
Read-outs that look alike come from different tables or passages of the source.

What was measured:
MIA PaCa-2 cells = test: Growth inhibition activity on KRAS-G12C mutant cell line (CellTiter-Glo 3D); format: cell-based, human; settings: Homo sapiens, MIA PaCa-2, 72 h, MIA PaCa-2, 3-day culture with compound
Summary of the method: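 MIA PaCa-2 cells in RPMI1640 with 10% FBS, U-bottom wells, cultured 1 day before compound (0.2% DMSO final), then 3 days at 37 °C, 5% CO2. Viability by CellTiter-Glo 3D luminescence; growth inhibition versus untreated wells gives IC50 (nM).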

[1] = target: T1, interaction between GMPPNP-bound recombinant K-Ras4B G12C mutant protein and cRAF RAS-binding domain (cRAF-RBD) (Homo sapiens, UniProt P01116, G12C); test: Inhibitory activity on interaction between KRAS G12C and cRAF (Alpha technology)
T1 construct: His-tag (N)
Summary of the method: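 His-tagged K-Ras4B G12C (aa 1-169), GMPPNP-loaded, preincubated with compound 1 h at 25° C in pH 7.5 Tris buffer with MgCl2, TCEP, Tween 20. cRAF-RBD (aa 50-132) and Alpha reagents then added for 1.5 h; Alpha signal normalised to DMSO (0%) and GDP-bound KRAS (100%); IC50 from dose titration.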

[2] = GMPPNP-bound KRAS G12C incubated with compound 25° C. 1 hour, Table 2-1, read-out: IC50
[3] = IC50, GMPPNP-bound KRAS G12C incubated with compound 25° C. 1 hour, Table 2

T1 sequence (P01116 with tags, fused parts or gaps isoform P01116-2 G12C): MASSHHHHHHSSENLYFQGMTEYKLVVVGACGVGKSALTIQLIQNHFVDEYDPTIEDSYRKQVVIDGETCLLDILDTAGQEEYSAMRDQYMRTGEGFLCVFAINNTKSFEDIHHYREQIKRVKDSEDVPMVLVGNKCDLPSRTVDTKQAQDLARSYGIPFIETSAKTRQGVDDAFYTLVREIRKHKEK

Cc1nnc2c3c(c(C(F)(F)F)cn12)-c1cccn2c(C(=O)c4cc(F)c(NC(=O)/C=C/CNC5(C)CC5)c(F)c4)cc(c12)CCN3C (single isomer, unassigned) [Example 223, (E)-N-(4-(10,13-dimethyl-7-(trifluoromethyl)-14,15-dihydro-13H-[1,2,4]-triazolo[4″,3″:1′,2′]-pyrido[3′,4′:2,3]azocino-[4,5,6-hi]indolizine-2-carbonyl)-2,6-difluoro-phenyl)-4-((1-methyl-cyclopropyl)amino)but-2-enamide]
IC50 (MIA PaCa-2 cells; Table 3-1): 0.0237 µM
IC50 [1, 2]: 0.0201 µM

COCc1nc2c3c(c(OC)cc2n1C)-c1cccn2c(C(=O)c4cc(F)c(NC(=O)/C=C/CN[C@H]5CCOC5)c(F)c4)c(C)c(c12)CCN3C (single isomer, unassigned) [Example 231]
IC50 (MIA PaCa-2 cells; Table 3-1): 0.0734 µM
IC50 [1, 2]: 0.101 µM

COc1cc2c(nc(C)n2C)c2c1-c1cc(F)cn3c(C(=O)c4cc(F)c(NC(=O)/C=C/CN[C@H]5CCOC5)c(F)c4)cc(c13)CCN2C (single isomer, unassigned) [Example 237]
IC50 (MIA PaCa-2 cells; Table 3-1): 0.00277 µM
IC50 [1, 2]: 0.0114 µM

COc1cc2c(nc(C)n2C)c2c1-c1cc(F)cn3c(C(=O)c4cc(F)c(NC(=O)/C=C/CNC5(C)CC5)c(F)c4)cc(c13)CCN2C (single isomer, unassigned) [Example 238]
IC50 (MIA PaCa-2 cells; Table 3-1): 0.0027 µM
IC50 [1, 2]: 0.00876 µM

Cc1cnc2c3c(c(C(F)(F)F)cn12)-c1cccn2c(C(=O)c4cc(F)c(NC(=O)/C=C/CN[C@H]5CCOC5)c(F)c4)cc(c12)CCN3C (single isomer, unassigned) [Example 242]
IC50 (MIA PaCa-2 cells; Table 3-1): 0.0167 µM
IC50 [1, 2]: 0.0178 µM

COCCn1c(COC)nc2c3c(c(OC)cc21)-c1cccn2c(C(=O)c4cc(F)c(NC(=O)/C=C/CNC5(C)CC5)c(F)c4)cc(c12)CCN3C (single isomer, unassigned) [Example 244]
IC50 (MIA PaCa-2 cells; Table 3-1): 0.01 µM
IC50 [1, 2]: 0.0155 µM

COCCn1c(COC)nc2c3c(c(OC)cc21)-c1cccn2c(C(=O)c4cc(F)c(NC(=O)/C=C/CN[C@H]5CCOC5)c(F)c4)cc(c12)CCN3C (single isomer, unassigned) [Example 247]
IC50 (MIA PaCa-2 cells; Table 3-1): 0.0285 µM
IC50 [1, 2]: 0.0234 µM

CO[C@H]1CC[C@H](NC/C=C/C(=O)Nc2c(F)cc(C(=O)c3cn4c5c(cccc35)-c3c(Cl)cccc3OCCCC4)cc2F)CC1 [Example 3, (E)-N-(4-(12-chloro-4,5,6,7-tetrahydrobenzo[2,3][1,6]oxazecino[4,5,6-hi]indole-1-carbonyl)-2,6-difluorophenyl)-4-(((1,4r)-4-methoxycyclohexyl)amino)but-2-enamide]
IC50 (MIA PaCa-2 cells; Table 3): 4.4 µM
IC50 [1, 3]: 2.7 µM

CO[C@H]1CC[C@H](NC/C=C/C(=O)Nc2c(F)cc(C(=O)c3cn4c5c(cccc35)-c3c(C)cccc3OCC4)cc2F)CC1 [Example 6, (E)-N-(2,6-difluoro-4-(10-methyl-4,5-dihydrobenzo[7,8][1,4]oxazocino[6,5,4-hi]indole-1-carbonyl)phenyl)-4-(((1r,4r)-4-methoxycyclohexyl)amino)but-2-enamide]
IC50 (MIA PaCa-2 cells; Table 3): 0.67 µM
IC50 [1, 3]: 0.16 µM

CO[C@H]1CC[C@H](NC/C=C/C(=O)Nc2c(F)cc(C(=O)c3cn4c5c(cccc35)-c3c(F)cccc3OCC4)cc2F)CC1 [Example 7]
IC50 (MIA PaCa-2 cells; Table 3): 1.1 µM
IC50 [1, 3]: 0.84 µM

CO[C@H]1CC[C@H](NC/C=C/C(=O)Nc2c(F)cc(C(=O)c3cn4c5c(cccc35)-c3c(Cl)cc(N5CCCC5=O)cc3OCC4)cc2F)CC1 [Example 8, (E)-N-(4-(10-chloro-8-(2-oxopyrrolidin-1-yl)-4,5-dihydrobenzo[7,8][1,4]oxazocino[6,5,4-hi]indole-1-carbonyl)-2,6-difluorophenyl)-4-(((1r,4t)-4-methoxycyclohexyl)amino)but-2-enamide]
IC50 (MIA PaCa-2 cells; Table 3): 0.16 µM
IC50 [1, 3]: 0.15 µM

CO[C@H]1CC[C@H](NC/C=C/C(=O)Nc2c(F)cc(C(=O)c3cn4c5c(cccc35)-c3c(ccc(C#N)c3Cl)OCC4)cc2F)CC1 [Example 9, (E)-N-(4-(10-chloro-9-cyano-4,5-dihydrobenzo[7,8][1:4]oxazocino[6,5,4-hi]indole-1-9 carbonyl)-2,6-difluorophenyl)-4-(((1,4r)-4-methoxycyclohexyl)amino)but-2-enamide]
IC50 (MIA PaCa-2 cells; Table 3): 0.76 µM
IC50 [1, 3]: 1.5 µM

COc1cccc2c1-c1cccc3c(C(=O)c4cc(F)c(NC(=O)/C=C/CN[C@H]5CC[C@H](OC)CC5)c(F)c4)cn(c13)CCO2 [Example 10, (E)-N-(2,6-difluoro-4-(10-methoxy-4,5-dihydrobenzo[7,8][1,4]oxazocino[6,5,4-hi]indole-1-carbonyl)phenyl)-4-(((1,4r)-4-methoxycyclohexyl)amino)but-2-enamide]
IC50 (MIA PaCa-2 cells; Table 3): 0.23 µM
IC50 [1, 3]: 0.15 µM

Cc1cc2c(nc(C)n2C)c2c1-c1cccc3c(C(=O)c4cc(F)c(NC(=O)/C=C/CNC(C)(C)C)c(F)c4)cn(c13)CCO2 [Example 13, (E)-4-(tert-butylamino)-N-(2,6-difluoro-4-(6,8,9-trimethyl-12,13-dihydro-SH-imidazo[4″,5″:3′,4′]benzo[1′,2:7,8][1,4]oxazocino[6,5,4-hi]indole-2-carbonyl)phenyl)but-2-enamide]
IC50 (MIA PaCa-2 cells; Table 3): 0.059 µM
IC50 [1, 3]: 0.017 µM

CO[C@H]1CC[C@H](NC/C=C/C(=O)Nc2c(F)cc(C(=O)c3cn4c5c(cccc35)-c3c(C)cc5c(nc(C)n5C)c3OC4)cc2F)CC1 [Example 16, (E)-N-(2,6-difluoro-4-(2,3,5-trimethyl-3H,12H-imidazo[4″,5″.3′,4′]benzo[1′,2:6,7][1,3]oxazepino[5,4,3-hi]indole-9-carbonyl)phenyl)-4-(((1r,4r)-4-methoxycyclohexyl)amino)but-2-enamide]
IC50 (MIA PaCa-2 cells; Table 3): 0.056 µM
IC50 [1, 3]: 0.1 µM

CO[C@H]1CC[C@H](NC/C=C/C(=O)Nc2c(F)cc(C(=O)c3cn4c5c(cccc35)-c3c(C)cc5c(nc(C)n5C)c3OC[C@H]4C)cc2F)CC1 [Example 17, (E)-N-(2,6-difluoro-4-((R)-6,8,9,13-tetramethyl-12,13-dihydro-8H-imidazo[4″,5″;3′,4′]benzo[1′,2:7,8][1,4]oxazocino[6,5,4-hi]indole-2-carbonyl)phenyl)-4-(((1,4r)-4-methoxycyclohexyl)amino)but-2-enamide]
IC50 (MIA PaCa-2 cells; Table 3): 0.82 µM
IC50 [1, 3]: 1.3 µM

CO[C@H]1CC[C@H](NC/C=C/C(=O)Nc2c(F)cc(C(=O)c3cn4c5c(cccc35)-c3c(C)cc5c(nc(C)n5C)c3OC[C@@H]4C)cc2F)CC1 [Example 18, (E)-N-(2,6-difluoro-4-((S)-6,8,9,13-tetramethyl-12,13-dihydro-8H-imidazo[4″,5″:3′,4]benzo[1′,2′:7,8][1,4]oxazocino[6,5,4-hi]indole-2-carbonyl)phenyl)-4-(((1,4r)-4-methoxycyclohexyl)amino)but-2-enamide]
IC50 (MIA PaCa-2 cells; Table 3): 0.021 µM
IC50 [1, 3]: 0.019 µM

CO[C@H]1CC[C@H](NC/C=C/C(=O)Nc2c(F)cc(C(=O)c3cn4c5c(cccc35)-c3c(C)cc5c(nc(C)n5C)c3O[C@H](C)C4)cc2F)CC1 [Example 19, (E)-N-(2,6-difluoro-4-((R)-6,8,9,12-tetramethy 1-12,13-dihydro-8H-imidazo[4″,5″:3′,4′]benzo[1′,2′:7,8][1,4]oxazocino[6,5,4-hi]indole-2-carbonyl)phenyl)-4-(((1,4r)-4-methoxycyclohexyl)amino)but-2-enamide]
IC50 (MIA PaCa-2 cells; Table 3): 3.3 µM
IC50 [1, 3]: > 6.7 µM

CO[C@H]1CC[C@H](NC/C=C/C(=O)Nc2c(F)cc(C(=O)c3cn4c5c(cccc35)-c3c(C)cc5c(nc(C)n5C)c3OC[C@@H](C)C4)cc2F)CC1 [Example 22, (E)-N-(2,6-difluoro-4-((S)-6,8,9,13-tetramethyl-13,14-dihydro-8H, 12H-imidazo[4″,5″:3′,4′]benzo[1′,248,9][1,5]oxazonino[7,6,5-hi]indole-2-carbonyl)phenyl)-4-(((1,4r)-4-methoxycyclohexyl)amino)but-2-enamide]
IC50 (MIA PaCa-2 cells; Table 3): 0.1 µM
IC50 [1, 3]: 0.1 µM

CO[C@H]1CC[C@H](NC/C=C/C(=O)Nc2c(F)cc(C(=O)c3c(C)n4c5c(cccc35)-c3c(C(F)(F)F)cc5c(nc(C)n5C)c3OCC4)cc2F)CC1 [Example 25, (E)-N-(2,6-difluoro-4-(1,8,9-trimethyl-6-(trifluoromethyl)-12, 13-dihydro-8H-imidazo[4″,5″:3′,4′]benzo[1′,2′:7,8][1,4]oxazocino[6,5,4-hi]indole-2-carbonyl)phenyl)-4-(((1,4r)-4-methoxycyclohexyl)amino)but-2-enamide]
IC50 (MIA PaCa-2 cells; Table 3): 0.024 µM
IC50 [1, 3]: 0.039 µM

CO[C@H]1CC[C@H](NC/C=C/C(=O)Nc2c(F)cc(C(=O)c3cn4c5c(cccc35)-c3c(C)cc5c(nc(C)n5C)c3OCC(F)(F)C4)cc2F)CC1 [Example 26, (E)-N-(4-(13,13-difluoro-6,8,9-trimethyl-13,14-dihydro-8H,12H-imidazo[4″,5″:3′,4′]benzol[1′,2′:8,9][1,5]oxazonino[7,6,5-hi]indole-2-carbonyl)-2,6-difluorophenyl)-4-(((1r,4r)-4-methoxycyclohexyl)amino)but-2-enamide]
IC50 (MIA PaCa-2 cells; Table 3): 0.13 µM
IC50 [1, 3]: 0.1 µM

CO[C@H]1CC[C@H](NC/C=C/C(=O)Nc2c(F)cc(C(=O)c3cn4c5c(cccc35)-c3c(C)cc5c(nc(C)n5C)c3CCC4)cc2F)CC1 [Example 27, (E)-N-(2,6-difluoro-4-(6,8,9-trimethyl-8,11,12,13-tetrahydroimidazo[4″,5″:3′,4′]benzo[1′,2′:4,5]azocino[3,2,1-hi]indole-2-carbonyl)phenyl)-4-(((1r,4r)-4-methoxycyclohexyl)amino)but-2-enamide]
IC50 (MIA PaCa-2 cells; Table 3): 0.088 µM
IC50 [1, 3]: 0.064 µM
